Assay results: publication PMC6332173, “Diterpenoids from Saliva plebeia R. Br. and Their Antioxidant and Anti-Inflammatory Activities” (Molecules, 2015)
Values belong to the compound of their own block, whether it stands above or below them.

Columns and labels:
[1] = system: intracellular ROS production in LPS-stimulated RAW 264.7 macrophages; assay: Intracellular ROS assay in LPS-stimulated RAW 264.7 macrophages (DCFH-DA); assay type: cell-based, murine; conditions: Mus musculus, RAW264.7, LPS 1 μg/mL, 6 h, mean ± SD, n=3, read-out: Intracellular ROS Inhibition Rate (%)
Procedure: Intracellular ROS assay: Intracellular ROS assay was performed according to the method reported previously. RAW 264.7, a murine macrophage cell line, was obtained from the Pharmacognosy Laboratory of Prof. Mian Zhang, China Pharmaceutical University. Cells were cultured in DMEM containing 10% fetal bovine serum, 100 U/mL penicillin and 100 U/mL streptomycin at 37 °C in a humidified atmosphere containing 5% CO2 and 95% air. The cells (1 × 10^5 cells/well) were pre-incubated in the 96-well plate for 12 h. Then, cells were cultured in normal medium as normal group, or 1 μg/mL LPS as control group, or 1 μg/mL LPS plus different concentration of compounds as test group. After the cells of each group were treated for 6 h, the medium was removed, and the cells were incubated with 50 μL 2,7-Dichlorofluorescein diacetate (DCFH-DA) (10 μM) for 20 min at 37 °C. After that, the cells were washed with PBS carefully three times to remove free DCFH-DA. The absorbance was determined at 525 nm using Thermo Scientific Varioskan Flash. Apocynin was used as the positive control. The inhibitory rate (%) was calculated according to the equation: Inhibition rate (%) = [1 − (B1 − B0)/(B2 − B0)] × 100 (2) B1 refers to the absorbance of […], B0 refers to the absorbance of normal group.

[2] = DPPH radical scavenging assay; conditions: for DPPH radical scavenging rate: 30 min, absorbance 517 nm
Procedure: DPPH radical assay: DPPH radical scavenging assay was performed according to previous protocol with modifications. DPPH was dissolved in ethanol at the concentration of 200 µM. One hundred microliters of compounds (5, 10, 20, 30, 50 µM) were added to the 96-well plates, and evaded the light preservation for 30 min after addition 100 µL DPPH. Then the absorbance was measured at 517 nm using Thermo Scientific Varioskan Flash. Vitamin C was used as the positive control. The inhibitory effect was expressed as scavenging rate of alleviation and was calculated as follows: Scavenging rate (%) = [1 − (A1 − A2)/A0] × 100 (1) A1 refers to the absorbance with various concentrations of test compounds and DPPH, A2 refers to the absorbance with various concentrations of test compounds and ethanol, A0 refers to the absorbance with distilled water and DPPH.

[3] = system: NO production in LPS-stimulated RAW 264.7 macrophages; assay: NO production in LPS-stimulated RAW 264.7 macrophages (Griess reaction); assay type: cell-based, murine; conditions: Mus musculus, RAW264.7; for inhibition at 3 µM / inhibition at 10 µM / inhibition at 30 µM / inhibition at 100 µM: LPS 1 μg/mL, 24 h, mean ± SD, n=3, read-out: NO Inhibition Rate (%); for IC50: LPS-induced RAW 264.7 macrophages, read-out: IC50 of NO production inhibition
RAW 264.7 macrophages = assay type: cell-based, murine; conditions: mouse, 24 h, 100 µM
Procedure: The MTT assay was used to evaluate the cell viability, as previously reported. RAW 264.7 macrophages were seeded at a density of 1 × 10^5 cells /mL in 96-well plates and cultured for 24 h with the test compound (100 µM) at 37 °C in a 5% CO2 incubator. Subsequently, 20 μL of MTT solution (5 mg/mL) was added to each well and incubated for 4 h at 37 °C and the resulted crystals were dissolved in DMSO. The optical density was measured at 490 nm using Thermo Scientific Varioskan Flash.

SMILES: COc1cc(C(C)=O)ccc1O [Apocynin, reference compound]
inhibition at 100 µM [1]: 92.9 ± 2.6%

SMILES: CC(C)C1CC2C(CO)(CC(O)C(O)C2(C)C)c2c(O)cc(O)cc21 [Compound 1, 1,2,3,4,4α,9,10,10α-octahydro-(4α-hydroxyymethyl)-1,1-dimethyl-9-(1-methylethyl)-(2S,3S,4αR,9R,10αS)-2,3,5,7-phenanthrenetertrol]
IC50 [2]: 29.6 µM
DPPH radical scavenging rate ([2]; 5 µM compound): 16.6 ± 3.3%
DPPH radical scavenging rate ([2]; 10 µM compound): 21.0 ± 1.8%
DPPH radical scavenging rate ([2]; 20 µM compound): 39.2 ± 4.1%
DPPH radical scavenging rate ([2]; 30 µM compound): 53.4 ± 8.2%
DPPH radical scavenging rate ([2]; 50 µM compound): 75.4 ± 6.8%
inhibition at 10 µM [1]: 24.6 ± 2.4%
inhibition at 30 µM [1]: 56.1 ± 8.2%
inhibition at 100 µM [1]: 64.8 ± 5.2%
inhibition at 3 µM [3]: 18 ± 3.2%
inhibition at 10 µM [3]: 42.9 ± 2.5%
inhibition at 30 µM [3]: 68.9 ± 5.2%
inhibition at 100 µM [3]: 86.6 ± 4.9%
IC50 [3]: 18 µM
Cell Viability (% vs. Control) (RAW 264.7 macrophages): 97.3 ± 4.2%
melting point: 232 to 233 °C

SMILES: CC(C)c1cc(O)c2c(c1O)[C@@H]1CC3C(C)(C)CCC[C@]23C(=O)O1 (stereo partly drawn) [Compound 3, isocarnosol]
IC50 [2]: > 50 µM
DPPH radical scavenging rate ([2]; 5 µM compound): 3.4 ± 2.3%
DPPH radical scavenging rate ([2]; 10 µM compound): 11.5 ± 2.4%
DPPH radical scavenging rate ([2]; 20 µM compound): 24.5 ± 1.2%
DPPH radical scavenging rate ([2]; 30 µM compound): 42.6 ± 6.0%
DPPH radical scavenging rate ([2]; 50 µM compound): 49.0 ± 1.1%
inhibition at 10 µM [1]: 13.5 ± 1.1%
inhibition at 30 µM [1]: 16 ± 1.9%
inhibition at 100 µM [1]: 22 ± 1.8%
inhibition at 3 µM [3]: 18.8 ± 3%
inhibition at 10 µM [3]: 29.9 ± 5%
inhibition at 30 µM [3]: 59.4 ± 4.7%
inhibition at 100 µM [3]: 98.1 ± 6.5%
IC50 [3]: 23.6 µM
Cell Viability (% vs. Control) (RAW 264.7 macrophages): 106.7 ± 1.5%

SMILES: CC(C)c1cc(C=O)c2c(c1O)OC(=O)C1C(C)(C)CCC[C@]21C=O (stereo partly drawn) [Compound 4, saficinolide]
IC50 [2]: > 50 µM
DPPH radical scavenging rate ([2]; 5 µM compound): 14.5 ± 2.9%
DPPH radical scavenging rate ([2]; 10 µM compound): 15.2 ± 6.0%
DPPH radical scavenging rate ([2]; 20 µM compound): 15.5 ± 1.3%
DPPH radical scavenging rate ([2]; 30 µM compound): 7.0 ± 4.7%
DPPH radical scavenging rate ([2]; 50 µM compound): 13.2 ± 1.5%
inhibition at 10 µM [1]: 8.1 ± 3.2%
inhibition at 30 µM [1]: 16.6 ± 4.4%
inhibition at 100 µM [1]: 47.1 ± 6.1%
inhibition at 3 µM [3]: 6.3 ± 2.4%
inhibition at 10 µM [3]: 11.9 ± 5.8%
inhibition at 30 µM [3]: 15.8 ± 4.4%
inhibition at 100 µM [3]: 28.7 ± 5.3%
IC50 [3]: > 100 µM
Cell Viability (% vs. Control) (RAW 264.7 macrophages): 101.3 ± 5.0%

SMILES: CC(C)Cc1ccc(C(C)C(=O)O)cc1 (stereo not drawn) [ibuprofen, reference compound]
inhibition at 30 µM [3]: 32.3 ± 4.2%

Second part, led by results:

IC50 [2]: 28.8 µM
IC50 [3]: 21.5 µM
SMILES: CC(C)c1cc2c(c(O)c1O)[C@@]13CCCC(C)(C)[C@@H]1C[C@@H]2OC3=O [Compound 2, carnosol]
DPPH radical scavenging rate ([2]; 5 µM compound): 5.9 ± 1.6%
DPPH radical scavenging rate ([2]; 10 µM compound): 15.4 ± 2.6%
DPPH radical scavenging rate ([2]; 20 µM compound): 29.5 ± 1.9%
DPPH radical scavenging rate ([2]; 30 µM compound): 59.3 ± 4.2%
DPPH radical scavenging rate ([2]; 50 µM compound): 86.1 ± 3.3%
inhibition at 10 µM [1]: 29.5 ± 3.1%
inhibition at 30 µM [1]: 53.2 ± 2%
inhibition at 100 µM [1]: 80.3 ± 1.3%
inhibition at 3 µM [3]: 20.5 ± 2.6%
inhibition at 10 µM [3]: 32 ± 4.8%
inhibition at 30 µM [3]: 63.3 ± 5.3%
inhibition at 100 µM [3]: 103 ± 5.9%
Cell Viability (% vs. Control) (RAW 264.7 macrophages): 110.5 ± 0.9%

IC50 [2]: 20 µM
IC50 [3]: > 100 µM
SMILES: CC(C)c1cc2c(c(O)c1O)[C@]13CO[C@H]2C[C@H]1C(C)(C)C[C@H](O)C3 [Compound 5, 2,11,12-trihydroxy-7,20-epoxy-8,11,13-abietatriene]
DPPH radical scavenging rate ([2]; 5 µM compound): 9.2 ± 5.8%
DPPH radical scavenging rate ([2]; 10 µM compound): 23.8 ± 6.6%
DPPH radical scavenging rate ([2]; 20 µM compound): 55.4 ± 2.7%
DPPH radical scavenging rate ([2]; 30 µM compound): 72.6 ± 5.7%
DPPH radical scavenging rate ([2]; 50 µM compound): 89.6 ± 1.3%
inhibition at 10 µM [1]: 13 ± 3.3%
inhibition at 30 µM [1]: 51.8 ± 2.2%
inhibition at 100 µM [1]: 91.3 ± 9.2%
inhibition at 3 µM [3]: 5.7 ± 3.8%
inhibition at 10 µM [3]: 4.9 ± 7.3%
inhibition at 30 µM [3]: 16.4 ± 5.4%
inhibition at 100 µM [3]: 25.6 ± 4%
Cell Viability (% vs. Control) (RAW 264.7 macrophages): 91.6 ± 2.3%

IC50 [2]: 26.5 µM
SMILES: O=C1O[C@H]([C@@H](O)CO)C(O)=C1O [Vit. C, Vitamin C, reference compound]
DPPH radical scavenging rate ([2]; 5 µM compound): 6.1 ± 4.4%
DPPH radical scavenging rate ([2]; 10 µM compound): 21.6 ± 2.2%
DPPH radical scavenging rate ([2]; 20 µM compound): 43.8 ± 2.6%
DPPH radical scavenging rate ([2]; 30 µM compound): 57.6 ± 5.4%
DPPH radical scavenging rate ([2]; 50 µM compound): 89.1 ± 2.2%
